Our source for the t1/2 values is EP1970064A1, “Silicon-derivatives for pet-imaging” (Bayer Schering Pharma Aktiengesellschaft, priority 2007, dated 2008).

This data set in a line: Hydrolytic stability: hydrolysis of the 19F fluorosilane to the silanol at physiological pH (7.0). The note with it: hydrolytic halflife of the 19F compound at pH 7.0, calculated from the kinetics. The data set is classed as physicochemical. On the procedure:
The time dependent degree of hydrolysis of compounds of formula I in which X is a fluorine atom of isotope 19 to compounds of formula I in which X is a hydroxy group was determined at physiological pH (7.0). From the kinetics the hydrolytic halflife (t1/2) measured in hours [h] of compounds of formula I in which X is a fluorine atom of isotope 19 were calculated (Table 1, column 2).
The ratio of the hydrolytic halflifes of compounds of formula I in which X is a fluorine atom of isotope 19 and the radioactive halflife of the 18-F isotope (1.83 hours) is defined as relative stability (Table 1, column 3).
After 6 hours 90% of the 18-F isotope have been decayed.
Compounds of formula I in which X is a fluorine atom of isotope 18 are considered as useful for PET applications if the relative stability of their analogs bearing a fluorine atom of isotope 19 exceed a factor of four and if at least 50% of these compounds remain intact after 6 hours under hydrolytic conditions at pH 7.

For the compound `F[Si](c1ccccc1)(c1ccccc1)c1ccc(CCOC2CCCCO2)cc1` (racemic) [Compound 3f-F, (RS)-Fluoro-diphenyl-{4-[2-(tetrahydro-pyran-2-yloxy)-ethyl]-phenyl}-silane], the t1/2 was 0.07 h.

`CC(C)C[Si](F)(CC(C)C)c1ccc(CC(=O)O)cc1` [Compound 5h-F, [4-(Fluoro-diisobutyl-silanyl)-phenyl]-acetic acid]: the t1/2 was 8.7 h. With `CC(C)[Si](F)(c1ccc(CCCO)cc1)C(C)C` [Compound 4c - F, 3-[4-(Fluoro-diisopropyl-silanyl)-phenyl]-propan-1-ol] the figure was above 100.0 h; with `CC(C)C[Si](F)(CC(C)C)c1ccc(COC2CCCCO2)cc1` (racemic) [Compound 3g-F, (RS)-Fluoro-diisobutyl-[4-(tetrahydro-pyran-2-yloxymethyl)-phenyl]-silane], 8.1 h. As to `CC(C)[Si](F)(c1cccc(CCCOC2CCCCO2)c1)C(C)C` (racemic) [Compound 3d - F, (RS)-Fluoro-diisopropyl-{3-[3-(tetrahydro-pyran-2-yloxy)-propyl]-phenyl}-silane], the t1/2 was above 100.0 h. With `CC(C)[Si](F)(c1cccc(CCOC2CCCCO2)c1)C(C)C` (racemic) [Compound 3e - F, (RS)-Fluoro-diisopropyl-{3-[2-(tetrahydro-pyran-2-yloxy)-ethyl]-phenyl}-silane], the t1/2 is given as above 100.0 h. As for `CC(C)[Si](F)(c1cccc(CC(=O)O)c1)C(C)C` [Compound 5e - F, [3-(Fluoro-diisopropyl-silanyl)-phenyl]-acetic acid], the figure is 20.0 h; as for `CC(C)C[Si](F)(CC(C)C)c1ccc(C(=O)O)cc1` [Compound 5g-F, 4-(Fluoro-diisobutyl-silanyl)-benzoic acid], 3.5 h. With `CC(C)[Si](F)(c1ccc(CCC(=O)O)cc1)C(C)C` [Compound 5c - F, 3-[4-(Fluoro-diisopropyl-silanyl)-phenyl]-propionic acid] the figure was 59.0 h.
